Measurements taken from paper PMC8119466, “A screen of FDA-approved drugs identifies inhibitors of protein tyrosine phosphatase 4A3 (PTP4A3 or PRL-3)” (Scientific Reports, 2021).
Structures can show the parent of a compound that is named as a salt. Where two headings read alike, the source gives them in different places.

Key:
Assay type in all cases: biochemical
recombinant PRL-1 = target: T1, recombinant PRL-1 (Homo sapiens, UniProt Q93096); assay: In vitro phosphatase assay (DiFMUP hydrolysis), PRL-1; also: test concentration or dose not given here
T1 construct: 6xHis (N, cleaved yes); made in house; host or cells: E. coli One Shot BL21 Star
T1 sequence (Q93096 1-173): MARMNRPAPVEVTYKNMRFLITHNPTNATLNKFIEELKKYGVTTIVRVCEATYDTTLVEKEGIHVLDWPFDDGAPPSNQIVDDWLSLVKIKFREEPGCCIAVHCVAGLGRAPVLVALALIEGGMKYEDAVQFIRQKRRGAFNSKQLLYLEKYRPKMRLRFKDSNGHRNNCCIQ

recombinant PRL-2 = target: T2, recombinant PRL-2 (Homo sapiens, UniProt Q12974); assay: In vitro phosphatase assay (DiFMUP hydrolysis), PRL-2;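 also: PRL-2 activity read as DiFMUP hydrolysis after 20 min at room temperature with drug, enzyme first pre-reduced at 4 °C for 20 min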
T2 construct: 6xHis (N, cleaved yes); made in house; host or cells: E. coli One Shot BL21 Star
T2 sequence (Q12974 1-167): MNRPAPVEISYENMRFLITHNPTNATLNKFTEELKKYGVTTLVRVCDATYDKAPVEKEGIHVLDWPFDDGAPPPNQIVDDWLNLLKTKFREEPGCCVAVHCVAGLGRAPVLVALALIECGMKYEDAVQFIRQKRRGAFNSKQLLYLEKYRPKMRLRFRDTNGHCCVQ

recombinant PRL-3 = target: T3, recombinant PRL-3 (Homo sapiens, UniProt O75365); assay: In vitro phosphatase assay (DiFMUP hydrolysis), PRL-3; also: test concentration or dose not given here
T3 construct: 6xHis (N, cleaved yes); made in house; host or cells: E. coli One Shot BL21 Star
T3 sequence (O75365 whole entry): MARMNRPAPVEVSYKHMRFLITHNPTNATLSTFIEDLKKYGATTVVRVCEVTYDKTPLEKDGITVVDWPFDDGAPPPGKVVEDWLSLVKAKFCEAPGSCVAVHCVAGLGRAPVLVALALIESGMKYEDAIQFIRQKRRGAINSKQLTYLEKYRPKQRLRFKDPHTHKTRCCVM

[1] = FDA-approved drug screen, compared to DMSO
[2] = FDA-approved drug screen, activity compared to DMSO

SMILES | % Phosphatase Activity (compared to DMSO) PRL-1 (recombinant PRL-1; [1]) [%] | % Phosphatase Activity (compared to DMSO) PRL-2 (recombinant PRL-2; [1]) [%] | % Phosphatase Activity (compared to DMSO) PRL-3 (recombinant PRL-3; [1]) [%] | also measured
COc1cc(OC)c(/C=C/S(=O)(=O)Cc2ccc(OC)c(NCC(=O)O)c2)c(OC)c1 [Rigosertib (ON-01910)] | 95 | 86 | 78 | 
CN[C@@H]1[C@H](O[C@H]2[C@H](O[C@H]3[C@H](O)[C@@H](O)[C@H](NC(=N)N)[C@@H](O)[C@@H]3NC(=N)N)O[C@@H](C)[C@]2(O)CO)O[C@@H](CO)[C@H](O)[C@H]1O [Dihydrostreptomycin sulfate] | 89 | 90 | 110 | 
CCCCNc1cc(C(=O)O)cc(S(N)(=O)=O)c1Oc1ccccc1 [Bumetanide] | 123 | 128 | 98 | 
CCOC(=O)[C@H](CCc1ccccc1)N[C@H]1CCCN2CCC[C@@H](C(=O)O)N2C1=O [Cilazapril Monohydrate] | 91 | 111 | 73 | 
CCN(CC)C(=O)/C(C#N)=C/c1cc(O)c(O)c([N+](=O)[O-])c1 [Entacapone] | 94 | 87 | 75 | 
CC(C)C(=O)Oc1ccc(CO)cc1[C@H](CCN(C(C)C)C(C)C)c1ccccc1 [Fesoterodine Fumarate] | 89 | 100 | 95 | 
C[N+]1(C)[C@@H]2C[C@@H](OC(=O)C(O)(c3cccs3)c3cccs3)C[C@H]1[C@@H]1O[C@@H]12 [Tiotropium Bromide hydrate] |  |  |  | % Phosphatase Activity (compared to DMSO) PRL-1 (recombinant PRL-1; [2]): 95%; % Phosphatase Activity (compared to DMSO) PRL-2 (recombinant PRL-2; [2]): 115%; % Phosphatase Activity (compared to DMSO) PRL-3 (recombinant PRL-3; [2]): 84%
Oc1ccc(O)cc1 [Hydroquinone] |  |  |  | % Phosphatase Activity (compared to DMSO) PRL-1 (recombinant PRL-1): 90%; % Phosphatase Activity (compared to DMSO) PRL-2 (recombinant PRL-2): 91%; % Phosphatase Activity (compared to DMSO) PRL-3 (recombinant PRL-3): 70%
CCCCc1oc2ccccc2c1C(=O)c1cc(I)c(OCCN(CC)CC)c(I)c1 [Amiodarone HCl] |  |  |  | % Phosphatase Activity (compared to DMSO) PRL-1 (recombinant PRL-1): 97%; % Phosphatase Activity (compared to DMSO) PRL-2 (recombinant PRL-2): 117%; % Phosphatase Activity (compared to DMSO) PRL-3 (recombinant PRL-3): 102%
Cc1cc(NC(=O)C2=C(O)c3ccccc3S(=O)(=O)N2C)no1 [Isoxicam] | 91 | 91 | 84 | 
CC(C)(C)NC[C@H](O)COc1nsnc1N1CCOCC1 [Timolol Maleate] |  |  |  | % Phosphatase Activity (compared to DMSO) PRL-1 (recombinant PRL-1; [2]): 107%; % Phosphatase Activity (compared to DMSO) PRL-2 (recombinant PRL-2; [2]): 111%; % Phosphatase Activity (compared to DMSO) PRL-3 (recombinant PRL-3; [2]): 87%
CN(C)CC(c1ccc(O)cc1)C1(O)CCCCC1 (stereo not drawn) [Desvenlafaxine Succinate] | 106 | 103 | 80 | 
COc1cc(NS(=O)(=O)c2ccc(N)cc2)nc(OC)n1 [Sulphadimethoxine] |  |  |  | % Phosphatase Activity (compared to DMSO) PRL-1 (recombinant PRL-1; [2]): 92%; % Phosphatase Activity (compared to DMSO) PRL-2 (recombinant PRL-2; [2]): 94%; % Phosphatase Activity (compared to DMSO) PRL-3 (recombinant PRL-3; [2]): 83%
COc1ncnc(NS(=O)(=O)c2ccc(N)cc2)c1OC [Sulfadoxine] |  |  |  | % Phosphatase Activity (compared to DMSO) PRL-1 (recombinant PRL-1; [2]): 110%; % Phosphatase Activity (compared to DMSO) PRL-2 (recombinant PRL-2; [2]): 106%; % Phosphatase Activity (compared to DMSO) PRL-3 (recombinant PRL-3; [2]): 76%
CCCCCCCCc1ccc(CCC(N)(CO)CO)cc1.Cl [Fingolimod (FTY720) HCl] | 104 | 95 | 116 | 
CC(C(=O)O)c1ccc2c(c1)[nH]c1ccc(Cl)cc12 (stereo not drawn) [Carprofen] | 95 | 94 | 71 | 
COc1ccccc1OCC(O)CN1CCN(CC(=O)Nc2c(C)cccc2C)CC1.Cl.Cl (stereo not drawn) [Ranolazine 2HCl] | 107 | 99 | 97 | 

SMILES | % Phosphatase Activity (compared to DMSO) PRL-1 (recombinant PRL-1; [1]) [%] | % Phosphatase Activity (compared to DMSO) PRL-2 (recombinant PRL-2; [1]) [%] | % Phosphatase Activity (compared to DMSO) PRL-3 (recombinant PRL-3; [1]) [%] | also measured
CC1=C(C(=O)O)N2C(=O)[C@@H](NC(=O)[C@H](N)c3ccccc3)[C@H]2SC1 [Cephalexin] | 98 | 81 | 98 | 
CCCC(=O)Nc1ccc(OCC(O)CNC(C)C)c(C(C)=O)c1 (stereo not drawn) [Acebutolol HCl] | 105 | 123 | 86 | 
CCOc1ccccc1OCCN[C@H](C)Cc1ccc(OC)c(S(N)(=O)=O)c1 [Tamsulosin] |  |  |  | % Phosphatase Activity (compared to DMSO) PRL-1 (recombinant PRL-1; [2]): 96%; % Phosphatase Activity (compared to DMSO) PRL-2 (recombinant PRL-2; [2]): 107%; % Phosphatase Activity (compared to DMSO) PRL-3 (recombinant PRL-3; [2]): 83%
O=C(N/N=C/c1ccc([N+](=O)[O-])o1)c1ccc(O)cc1 [Nifuroxazide] | 68 | 62 | 57 | 
COC(=O)CCc1ccc(OCC(O)CNC(C)C)cc1 (stereo not drawn) [Esmolol HCl] | 93 | 101 | 73 | 
COc1cccc2c1C(=O)c1c(O)c3c(c(O)c1C2=O)C[C@@](O)(C(=O)CO)C[C@@H]3O[C@H]1C[C@H](N)[C@@H](O)[C@H](C)O1 [Epirubicin HCl] | 78 | 90 | 58 | 
OC(c1cc(C(F)(F)F)nc2c(C(F)(F)F)cccc12)C1CCCCN1 (stereo not drawn) [Mefloquine HCl] | 100 | 106 | 109 | 
CN(C)CC(c1ccc(O)cc1)C1(O)CCCCC1 (stereo not drawn) [Desvenlafaxine] | 95 | 105 | 70 | 
Nc1ncnc2c1ncn2[C@@H]1O[C@H](CO)[C@@H](O)[C@@H]1O [Vidarabine] |  |  |  | % Phosphatase Activity (compared to DMSO) PRL-1 (recombinant PRL-1; [2]): 106%; % Phosphatase Activity (compared to DMSO) PRL-2 (recombinant PRL-2; [2]): 116%; % Phosphatase Activity (compared to DMSO) PRL-3 (recombinant PRL-3; [2]): 121%
C[N+]1(C)[C@@H]2CC[C@H]1C[C@@H](OC(=O)C(O)c1ccccc1)C2 (stereo partly drawn) [Homatropine Methylbromide] | 107 | 100 | 95 | 
Nc1ccn([C@@H]2O[C@H](CO)[C@@H](O)[C@@H]2O)c(=O)n1 [Cytarabine] | 104 | 86 | 91 | 
Cc1ccc2c(Cl)cc(Cl)c(O)c2n1 [Chlorquinaldol] | 88 | 102 | 71 | 
Cc1oncc1C(=O)Nc1ccc(C(F)(F)F)cc1 [Leflunomide] | 88 | 80 | 67 | 
CN1CCN(CCCN2c3ccccc3Sc3ccc(Cl)cc32)CC1.O=C(O)/C=C\C(=O)O.O=C(O)/C=C\C(=O)O [Prochlorperazine dimaleate salt] | 93 | 108 | 91 | 
CCCc1cc(C(N)=S)ccn1 [Protionamide] | 100 | 101 | 97 | 
CO[C@H]1/C=C/O[C@@]2(C)Oc3c(C)c(O)c4c(O)c(c(/C=N/N5CCN(C)CC5)c(O)c4c3C2=O)NC(=O)/C(C)=C\C=C\[C@H](C)[C@H](O)[C@@H](C)[C@@H](O)[C@@H](C)[C@H](OC(C)=O)[C@@H]1C [Rifampin] | 58 | 49 | 71 | 
